Experimental data reported in patent US20240376099A1, “COMPOUNDS AND COMPOSITIONS AS INHIBITORS OF ENDOSOMAL TOLL-LIKE RECEPTORS” (Novartis AG, priority 2016, published 2024).
pIC50: −log10 of the molar value.

These compounds were tested against T1, TLR9 (Homo sapiens, UniProt Q9NR96) (assay: huPBMC TLR9 Antagonist IFNα Assay). Conditions: human PBMCs stimulated with ODN2216 0.3 μM, 14-16 hrs; IFNα2b AlphaLISA read-out.
T1 construct: Fresh blood was collected from normal human donors; endogenous in cells; host or cells: human PBMCs from fresh donor blood
T1 sequence (Q9NR96 26-1032): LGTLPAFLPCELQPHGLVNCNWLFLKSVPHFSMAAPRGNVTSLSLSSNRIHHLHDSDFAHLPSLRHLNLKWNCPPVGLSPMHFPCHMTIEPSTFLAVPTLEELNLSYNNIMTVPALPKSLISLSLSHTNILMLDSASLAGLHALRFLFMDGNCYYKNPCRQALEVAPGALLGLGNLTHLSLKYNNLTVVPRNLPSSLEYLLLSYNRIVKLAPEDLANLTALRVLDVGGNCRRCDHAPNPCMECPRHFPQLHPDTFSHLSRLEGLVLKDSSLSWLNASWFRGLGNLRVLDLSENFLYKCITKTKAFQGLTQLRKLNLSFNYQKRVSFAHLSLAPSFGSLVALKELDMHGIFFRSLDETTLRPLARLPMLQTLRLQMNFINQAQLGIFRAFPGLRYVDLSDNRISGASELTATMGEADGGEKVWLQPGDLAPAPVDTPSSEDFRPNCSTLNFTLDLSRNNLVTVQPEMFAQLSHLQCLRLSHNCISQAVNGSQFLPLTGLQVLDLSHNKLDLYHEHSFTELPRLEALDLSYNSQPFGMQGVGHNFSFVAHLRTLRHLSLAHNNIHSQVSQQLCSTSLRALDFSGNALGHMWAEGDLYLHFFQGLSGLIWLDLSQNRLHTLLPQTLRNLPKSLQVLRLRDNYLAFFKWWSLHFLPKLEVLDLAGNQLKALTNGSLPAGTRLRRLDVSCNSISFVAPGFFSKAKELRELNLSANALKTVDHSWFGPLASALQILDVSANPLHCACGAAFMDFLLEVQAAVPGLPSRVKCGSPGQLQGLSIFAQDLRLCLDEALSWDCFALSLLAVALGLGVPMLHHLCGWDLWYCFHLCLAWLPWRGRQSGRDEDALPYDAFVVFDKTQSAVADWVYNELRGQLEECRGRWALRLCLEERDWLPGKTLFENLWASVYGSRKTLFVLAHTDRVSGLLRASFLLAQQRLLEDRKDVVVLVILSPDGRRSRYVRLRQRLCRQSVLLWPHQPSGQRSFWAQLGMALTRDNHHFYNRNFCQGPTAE
Assay type: cell-based
Summary of the method: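 Human PBMCs from fresh donor blood (150,000 cells/well) stimulated 14–16 h at 37 °C with DOTAP-complexed ssRNA40 (final 1 μg/ml for TLR8, 10 μg/mL for TLR7) or ODN2216 (final 0.3 μM, TLR9), 0.25% DMSO, ten-point 1/3 compound dilutions. Supernatant IL-6 read by HTRF (TLR8); IFNα by IFNα2b AlphaLISA (TLR7/TLR9).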

Structure (SMILES) | pIC50
Cc1cc(N2CCc3nn(CC45CC(N)(C4)C5)c(C)c3C2)c2cnn(C)c2n1 [compound 52, 3-((5-(1,6-dimethyl-1H-pyrazolo[3,4-b]pyridin-4-yl)-3-methyl-4,5,6,7-tetrahydro-2H-pyrazolo[4,3-c]pyridin-2-yl)methyl)bicyclo[1.1.1]pentan-1-amine] | 5.31
Cc1cc(N2CCc3c(c(C)nn3CC34CCC(N(C)C(=O)OC(C)(C)C)(CC3)CC4)C2)c2cnn(C)c2n1 [Compound No. 49, tert-butyl (4-((5-(1,6-dimethyl-1H-pyrazolo[3,4-b]pyridin-4-yl)-3-methyl-4,5,6,7-tetrahydro-1H-pyrazolo[4,3-c]pyridin-1-yl)methyl)bicyclo[2.2.2]octan-1-yl)(methyl)carbamate] | 5.40
Cc1cc(N2CCc3c(c(C)nn3CC34CCC(N5CC[C@H](O)C5)(CC3)CC4)C2)c2cnn(C)c2n1 [compound 75, (S)-1-(4-((5-(1,6-dimethyl-1H-pyrazolo[3,4-b]pyridin-4-yl)-3-methyl-4,5,6,7-tetrahydro-1H-pyrazolo[4,3-c]pyridin-1-yl)methyl)bicyclo[2.2.2]octan-1-yl)pyrrolidin-3-ol] | 6.02
CCOCCN(CCOCC)C12CCC(Cn3nc(C)c4c3CCN(c3cc(C)nc5c3cnn5C)C4)(CC1)CC2 [compound 72, 4-((5-(1,6-dimethyl-1H-pyrazolo[3,4-b]pyridin-4-yl)-3-methyl-4,5,6,7-tetrahydro-1H-pyrazolo[4,3-c]pyridin-1-yl)methyl)-N,N-bis(2-ethoxyethyl)bicyclo[2.2.2]octan-1-amine] | 6.09
Cc1cc(N2CCc3c(c(C)nn3CC34CCC(N(C)C5COC5)(CC3)CC4)C2)c2cnn(C)c2n1 [Compound No. 77, N-(4-((5-(1,6-dimethyl-1H-pyrazolo[3,4-b]pyridin-4-yl)-3-methyl-4,5,6,7-tetrahydro-1H-pyrazolo[4,3-c]pyridin-1-yl)methyl)bicyclo[2.2.2]octan-1-yl)-N-methyloxetan-3-amine] | 6.75
CNC12CCC(Cn3nc(C)c4c3CCN(c3cc(C)nc5c3cnn5C)C4)(CC1)CC2 [Compound No. 50, 4-((5-(1,6-dimethyl-1H-pyrazolo[3,4-b]pyridin-4-yl)-3-methyl-4,5,6,7-tetrahydro-1H-pyrazolo[4,3-c]pyridin-1-yl)methyl)-N-methylbicyclo[2.2.2]octan-1-amine] | 6.42
COc1ccc(Cn2ncc3c(N4CCc5c(c(C)nn5CC56CCC(N)(CC5)CC6)C4)cc(C)nc32)cc1 [Compound No. 53, 4-((5-(1-(4-methoxybenzyl)-6-methyl-1H-pyrazolo[3,4-b]pyridin-4-yl)-3-methyl-4,5,6,7-tetrahydro-1H-pyrazolo[4,3-c]pyridin-1-yl)methyl)bicyclo[2.2.2]octan-1-amine] | 5.76
CCNC12CCC(Cn3nc(C)c4c3CCN(c3cc(C)nc5c3cnn5C)C4)(CC1)CC2 [compound 57, 4-((5-(1,6-dimethyl-1H-pyrazolo[3,4-b]pyridin-4-yl)-3-methyl-4,5,6,7-tetrahydro-1H-pyrazolo[4,3-c]pyridin-1-yl)methyl)-N-ethylbicyclo[2.2.]octan-1-amine] | 6.30
Cc1cc(N2CCc3c(c(C)nn3CC34CCC(NC5CCC5)(CC3)CC4)C2)c2cnn(C)c2n1 [compound 54, N-cyclobutyl-4-((5-(1,6-dimethyl-1H-pyrazolo[3,4-b]pyridin-4-yl)-3-methyl-4,5,6,7-tetrahydro-1H-pyrazolo[4,3-c]pyridin-1-yl)methyl)bicyclo[2.2.2]octan-1-amine] | 6.31
Cc1cc(N2CCc3c(c(C)nn3CCC34CCC(N)(CC3)CC4)C2)c2cnn(C)c2n1 [compound 91, 4-(2-(5-(1,6-dimethyl-1H-pyrazolo[3,4-b]pyridin-4-yl)-3-methyl-4,5,6,7-tetrahydro-1H-pyrazolo[4,3-c]pyridin-1-yl)ethyl)bicyclo[2.2.2]octan-1-amine] | 6.67
Cc1cc(N2CCc3c(c(C)nn3CC34CCC(N5CCCC5)(CC3)CC4)C2)c2ccncc2n1 [compound 86, 2-methyl-4-(3-methyl-1-((4-(pyrrolidin-1-yl)bicyclo[2.2.2]octan-1-yl)methyl)-6,7-dihydro-1H-pyrazolo[4,3-c]pyridin-5(4H)-yl)-1,7-naphthyridine] | 5.56
Cc1cc(N2CCc3c(c(C)nn3CC34CCC(N)(CC3)CC4)C2)c2cnn(C)c2n1 [Compound No. 1, 4-((5-(1,6-dimethyl-1H-pyrazolo[3,4-b]pyridin-4-yl)-3-methyl-4,5,6,7-tetrahydro-1H-pyrazolo[4,3-c]pyridin-1-yl)methyl)bicyclo[2.2.2]octan-1-amine] | 5.82
Cc1cc(N2CCc3c(c(C)nn3CC34CCC(N)(CC3)CC4)C2)c2ccnc(C)c2n1 [compound 92, 4-((5-(2,8-dimethyl-1,7-naphthyridin-4-yl)-3-methyl-4,5,6,7-tetrahydro-1H-pyrazolo[4,3-c]pyridin-1-yl)methyl)bicyclo[2.2.2]octan-1-amine] | 7.03
Cc1cc(N2CCc3c(c(C)nn3CC34CCC(NC(C)C)(CC3)CC4)C2)c2cnn(C)c2n1 [compound 55, 4-((5-(1,6-dimethyl-1H-pyrazolo[3,4-b]pyridin-4-yl)-3-methyl-4,5,6,7-tetrahydro-1H-pyrazolo[4,3-c]pyridin-1-yl)methyl)-N-isopropylbicyclo[2.2.]octan-1-amine] | 5.98
Cc1cc(N2CCc3c(c(C)nn3CC34CCC(N5CCC5)(CC3)CC4)C2)c2cnn(C)c2n1 [compound 64, 1-((4-(azetidin-1-yl)bicyclo[2.2.2]octan-1-yl)methyl)-5-(1,6-dimethyl-1H-pyrazolo[3,4-b]pyridin-4-yl)-3-methyl-4,5,6,7-tetrahydro-1H-pyrazolo[4,3-c]pyridine] | 6.35
Cc1cc(N2CCc3c(c(C)nn3CC34CCC(NC(=O)OC5(C)CC5)(CC3)CC4)C2)c2cnn(C)c2n1 [Compound No. 51, 1-methylcyclopropyl (4-((5-(1,6-dimethyl-1H-pyrazolo[3,4-b]pyridin-4-yl)-3-methyl-4,5,6,7-tetrahydro-1H-pyrazolo[4,3-c]pyridin-1-yl)methyl)bicyclo[2.2.2]octan-1-yl)carbamate] | 5.12
Cc1cc(N2CCc3c(c(C)nn3CC34CCC(O)(CC3)CC4)C2)c2cnn(C)c2n1 [compound 46, 4-((5-(1,6-dimethyl-1H-pyrazolo[3,4-b]pyridin-4-yl)-3-methyl-4,5,6,7-tetrahydro-1H-pyrazolo[4,3-c]pyridin-1-yl)methyl)bicyclo[2.2.2]octan-1-ol] | < 5.00
Cc1cc(N2CCc3c(c(C)nn3CC34CCC(N)(CC3)CC4)C2)c2cn[nH]c2n1 [Compound No. 2, 4-((3-methyl-5-(6-methyl-1H-pyrazolo[3,4-b]pyridin-4-yl)-4,5,6,7-tetrahydro-1H-pyrazolo[4,3-c]pyridin-1-yl)methyl)bicyclo[2.2.2]octan-1-amine] | 5.50
Cc1cc(N2CCc3c(c(C)nn3CC34CCC(N(C)C5CCC5)(CC3)CC4)C2)c2cnn(C)c2n1 [compound 79, N-cyclobutyl-4-((5-(1,6-dimethyl-1H-pyrazolo[3,4-b]pyridin-4-yl)-3-methyl-4,5,6,7-tetrahydro-1H-pyrazolo[4,3-c]pyridin-1-yl)methyl)-N-methylbicyclo[2.2.2]octan-1-amine] | 7.19
Cc1cc(N2CCc3c(c(C)nn3CC34CCC(N5C[C@@H](O)[C@@H](O)C5)(CC3)CC4)C2)c2cnn(C)c2n1 [compound 74, (3S,4R)-1-(4-((5-(1,6-dimethyl-1H-pyrazolo[3,4-b]pyridin-4-yl)-3-methyl-4,5,6,7-tetrahydro-1H-pyrazolo[4,3-c]pyridin-1-yl)methyl)bicyclo[2.2.2]octan-1-yl)pyrrolidine-3,4-diol] | 5.81
CCOCCNC12CCC(Cn3nc(C)c4c3CCN(c3cc(C)nc5c3cnn5C)C4)(CC1)CC2 [compound 71, 4-((5-(1,6-dimethyl-1H-pyrazolo[3,4-b]pyridin-4-yl)-3-methyl-4,5,6,7-tetrahydro-1H-pyrazolo[4,3-c]pyridin-1-yl)methyl)-N-(2-ethoxyethyl)bicyclo[2.2.2]octan-1-amine] | 6.31
Cc1nn(CC23CCC(N4CCCC4)(CC2)CC3)c2c1CN(c1ccnc(-c3ccccc3)c1)CC2 [compound 85, 3-methyl-5-(2-phenylpyridin-4-yl)-1-((4-(pyrrolidin-1-yl)bicyclo[2.2.2]octan-1-yl)methyl)-4,5,6,7-tetrahydro-1H-pyrazolo[4,3-c]pyridine] | 6.24
